Experimental findings from patent US8183272B2, “Indanyl compounds” (Daiichi Sankyo Company, Limited, priority 2008, dated 2012) are described below.

One assay deals with PTH secretion. As to the kind of experiment: Evaluation of PTH secretion promoting activity in rat (blood serum PTH, ELISA). Format: in vivo. Particulars: female F344 rat, oral 3 mg/5 mL/kg, Means ± S.D., n = 3; for Blood Serum PTH (1-84) Concentration, 0 minute: before administration. Here is the method: Evaluation of PTH Secretion Promoting Activity in Rat
A 10 to 14-week old female F344 rat (Charles River Japan, Inc.) fasted overnight was anesthetized using ether, and blood serum before the administration was prepared by drawing blood from the jugular vein of the animal. Subsequently, the test compound was orally administered at a dose of 3 mg/5 mL/kg using a solvent (0.5% aqueous methyl cellulose solution containing 5% DMA). Blood was drawn from the jugular vein under ether anesthesia at 5, 15, 30, 60, 120, and 240 minutes after the administration of the test compound, and the blood serum was prepared. The blood serum PTH concentration was measured using rat Intact PTH ELISA kit (manufactured by Immutopics, Inc.).
(An ELISA detects its analyte on a solid surface through an enzyme-linked reagent.)

Assay [1] has as its target T1, human calcium-sensing receptor (CaSR) (Homo sapiens, UniProt P41180).
T1 construct: expressed in transfected cells; host or cells: CHO cells (CHO/hCaSR)
T1 sequence (P41180 20-1078): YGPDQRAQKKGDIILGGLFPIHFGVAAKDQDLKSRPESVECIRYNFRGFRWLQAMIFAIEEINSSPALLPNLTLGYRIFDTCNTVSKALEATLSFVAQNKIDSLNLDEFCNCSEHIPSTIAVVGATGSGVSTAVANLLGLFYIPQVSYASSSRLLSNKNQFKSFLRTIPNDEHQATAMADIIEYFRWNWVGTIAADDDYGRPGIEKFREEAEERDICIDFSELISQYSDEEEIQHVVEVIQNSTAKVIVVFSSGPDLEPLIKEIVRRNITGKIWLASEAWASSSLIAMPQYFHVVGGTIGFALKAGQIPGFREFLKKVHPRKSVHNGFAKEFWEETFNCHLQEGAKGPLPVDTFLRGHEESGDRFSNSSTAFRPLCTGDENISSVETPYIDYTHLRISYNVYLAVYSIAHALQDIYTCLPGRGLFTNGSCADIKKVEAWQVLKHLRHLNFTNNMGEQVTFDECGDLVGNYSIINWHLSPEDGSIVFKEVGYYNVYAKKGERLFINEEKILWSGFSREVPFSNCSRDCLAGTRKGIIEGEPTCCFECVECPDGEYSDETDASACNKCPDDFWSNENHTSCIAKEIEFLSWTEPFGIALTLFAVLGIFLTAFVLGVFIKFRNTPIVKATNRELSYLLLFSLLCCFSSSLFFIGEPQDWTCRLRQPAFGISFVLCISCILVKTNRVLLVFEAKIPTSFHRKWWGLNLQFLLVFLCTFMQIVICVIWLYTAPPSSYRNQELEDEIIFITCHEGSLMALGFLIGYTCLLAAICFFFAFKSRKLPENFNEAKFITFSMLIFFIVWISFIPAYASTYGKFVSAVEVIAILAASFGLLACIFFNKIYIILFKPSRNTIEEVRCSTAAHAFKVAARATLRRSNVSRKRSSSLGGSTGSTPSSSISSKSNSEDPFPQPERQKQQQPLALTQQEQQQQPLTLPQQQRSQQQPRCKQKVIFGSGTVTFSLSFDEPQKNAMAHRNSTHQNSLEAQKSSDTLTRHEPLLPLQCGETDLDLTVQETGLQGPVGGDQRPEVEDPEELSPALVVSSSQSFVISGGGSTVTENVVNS
Description: Inhibitory activity on calcium-sensing receptor (CaSR) using intracellular calcium increase as an indicator (FLIPR, CHO/hCaSR). Type of assay: cell-based. To be noted: CHO/hCaSR cells; intracellular Ca increase induced by CaCl2; test compound 1.05 to 10,000 nM. The procedure: Evaluation of inhibitory activity on calcium-sensing receptor (CaSR) using intracellular calcium increase as an indicator
The preparation which is prepared by adding CHO/hCaSR to F12 medium (manufactured by Invitrogen) containing 10% fetal bovine serum to have 2×10^5 cells/mL was applied to a 384-well in an amount of 50 μL/well, and then incubated overnight in a CO2 incubator. The culture supernatant was completely removed, the assay buffer (20 mM HEPES, HBSS (Ca and Mg free) containing 2.5 mM probenecid, pH 7.4) containing Calcium 3 (manufactured by Molecular Devices), i.e., a fluorescent intracellular calcium indicator, was added thereto in an amount of 25 μL/well, and the mixture was maintained for 1 hour in a CO2 incubator. Meanwhile, Calcium 3 was prepared according to the protocol enclosed in FLIPR Calcium 3 Assay Kit (manufactured by Molecular Devices). After maintaining it for 1 hour, a solution in which the test compound is prepared to have 2.1 to 20,000 nM (final concentration of 1.05 to 10,000 nM) by an assay buffer was added thereto in an amount of 25 μL/well, and maintained for 15 minutes in a CO2 incubator. Then, the CaCl2 solution prepared to have […] by using the assay buffer was added in an amount of 25 μL/well, and the resulting intracellular Ca increase (i.e., fluorescence intensity) was measured over time using a fluorescence imaging plate reader (FLIPR, manufactured by Molecular Devices). From the data obtained, the difference between the fluorescence intensity before the addition of CaCl2 solution and the maximum fluorescence intensity after the addition of CaCl2 solution was calculated, and the 50% inhibition concentration (IC50) of the test compound was obtained.
(In general: Calcium flux is commonly read through the fluorescence of an indicator in the cells.)

pIC50: −log10 of the molar value. Some results are limits rather than exact numbers.

As to `Cc1cccc([C@@H](C)OC[C@H](O)CNC(C)(C)CC2Cc3ccccc3C2)c1CCC(=O)O` [Example 4, 3-{2-[(1R)-1-{[(2R)-3-{[1-(2,3-Dihydro-1H-inden-2-yl)-2-methylpropan-2-yl]amino}-2-hydroxypropyl]oxy}ethyl]-6-methylphenyl}propanoic acid], in the assay with PTH secretion, the “Blood Serum PTH (1-84) Concentration, After 5 minutes” value stood at 68.2 ± 6.0 pg/mL; the “Blood Serum PTH (1-84) Concentration, After 15 minutes” value is given as 489.1 ± 106.0 pg/mL; the “Blood Serum PTH (1-84) Concentration, After 30 minutes” value was 538.6 ± 155.1 pg/mL; the “Blood Serum PTH (1-84) Concentration, After 60 minutes” value is listed as 117.0 ± 33.7 pg/mL. Moreover, in the assay with PTH secretion, the “Blood Serum PTH (1-84) Concentration, After 120 minutes” value worked out at 108.8 ± 27.4 pg/mL; the “Blood Serum PTH (1-84) Concentration, After 240 minutes” value is 91.9 ± 24.5 pg/mL; the “Blood Serum PTH (1-84) Concentration, 0 minute” value amounted to 20.5 ± 6.6 pg/mL.

By pIC50 is commonly meant the negative decadic logarithm of the IC50, by convention in mol/L. Turning to `C[C@@H](OC[C@H](O)CNC1(CC2Cc3ccccc3C2)CC1)c1ccccc1CCC(=O)O` [Example 14, 3-{2-[(1R)-1-{[(2R)-3-{[1-(2,3-Dihydro-1H-inden-2-ylmethyl)cyclopropyl]amino}-2-hydroxypropyl]oxy}ethyl]phenyl}propanoic acid], in the assay with PTH secretion, the “Blood Serum PTH (1-84) Concentration, After 5 minutes” value is 211.6 ± 28.4 pg/mL; the “Blood Serum PTH (1-84) Concentration, After 15 minutes” value came out at 471.7 ± 112.8 pg/mL; the “Blood Serum PTH (1-84) Concentration, After 30 minutes” value amounted to 146.1 ± 45.2 pg/mL; the “Blood Serum PTH (1-84) Concentration, After 60 minutes” value was determined as 78.9 ± 5.0 pg/mL. For the same molecule, in the assay on PTH secretion, the “Blood Serum PTH (1-84) Concentration, After 120 minutes” value amounted to 81.8 ± 4.9 pg/mL; the “Blood Serum PTH (1-84) Concentration, After 240 minutes” value came out at 94.3 ± 15.7 pg/mL; the “Blood Serum PTH (1-84) Concentration, 0 minute” value is 62.8 ± 11.4 pg/mL. Moreover, the pIC50 in assay [1] is not below 5.60.

Take `CCC[C@@H](OC[C@H](O)CNC(C)(C)CC1Cc2ccccc2C1)c1ccc(Cl)cc1CCC(=O)O` [Example 77]: in assay [1], the pIC50 is not below 5.66.

Take `CCC[C@@H](OC[C@H](O)CNC(C)(C)CC1Cc2ccccc2C1)c1cccc(Cl)c1CCC(=O)O` [Example 78]: in assay [1], the pIC50 was not below 5.66.
